Reference: ChEMBL document CHEMBL5576044, “Inhibition of kynurenine production by N,O-substituted hydroxylamine derivatives” (Bioorg Med Chem Lett, 2024)
Active and inactive are the calls of the source. The rule behind the calls is not given here.

How the values were obtained:
[1] = Inhibition of kynurenine production in human SK-OV-3 cells; assay type: functional, cell-based
[2] = molecular target: Indoleamine 2,3-dioxygenase 1 (Homo sapiens) (UniProt P14902); assay: Inhibition of recombinant human IDO1 at 10 ug/ml relative to control; details: dose 10.0 µg/ml
Indoleamine 2,3-dioxygenase 1 (Homo sapiens), sequence (P14902 whole entry, looked up): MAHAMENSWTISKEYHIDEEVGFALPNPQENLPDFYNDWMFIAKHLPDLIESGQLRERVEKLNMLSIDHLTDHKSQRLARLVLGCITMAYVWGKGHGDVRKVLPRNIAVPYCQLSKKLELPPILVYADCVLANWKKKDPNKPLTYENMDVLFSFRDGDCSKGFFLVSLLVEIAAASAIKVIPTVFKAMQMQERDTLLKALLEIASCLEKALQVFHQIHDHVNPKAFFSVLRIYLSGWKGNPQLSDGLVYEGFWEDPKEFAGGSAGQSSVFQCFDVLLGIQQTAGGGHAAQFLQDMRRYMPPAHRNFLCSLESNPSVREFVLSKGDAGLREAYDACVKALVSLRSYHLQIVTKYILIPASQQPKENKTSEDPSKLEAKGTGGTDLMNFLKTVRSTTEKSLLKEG

[3] = Cytotoxicity against human SK-OV-3 cells; assay type: toxicity, cell-based
Mus musculus [4] = assay: In vivo inhibition of kynurenine production in C57BL/6 mouse serum at 100 mg per mouse administered via oral dosing and measured after 2 hrs by LC-MS analysis; assay type: functional, organism-based
Mus musculus [5] = assay: In vivo inhibition of kynurenine production in iv dosed mouse serum by LC/MS analysis; assay type: functional, organism-based
[6] = Stability in mouse serum after 1 hr; assay type: ADME
[7] = Drug metabolism in mouse serum assessed as N-Cbz-L-alanine formation after 1 hr; assay type: ADME, cell-free
[8] = Drug metabolism in human SK-OV-3 cell culture supernatant assessed as O-4-nitrobenzyl hydroxylamine Hydrochloride formation after 24 hrs; assay type: ADME, cell-based; details: sk-ov-3, 24 h
[9] = molecular target: Indoleamine 2,3-dioxygenase 1 (Homo sapiens) (UniProt P14902); assay: Inhibition of IDO1 in human SK-OV-3 cells; assay type: cell-based
[10] = Drug concentration in C57BL/6 mouse serum at 100 mg per mouse administered via oral dosing after 2 hrs by LC-MS analysis; assay type: ADME; details: read-out: Drug uptake
[11] = Drug metabolism in human SK-OV-3 cell culture supernatant assessed as O-benzylhydroxylamine Hydrochloride formation after 24 hrs; assay type: ADME, cell-based; details: sk-ov-3, 24 h
[12] = Drug degradation in human SK-OV-3 cell culture supernatant; assay type: ADME, cell-based
Mus musculus [13] = assay: In vivo inhibition of kynurenine production in C57BL/6 mouse serum at 200 mg per mouse administered via ip and measured after 2 hrs by LC-MS analysis; assay type: functional, organism-based
Mus musculus [14] = assay: In vivo inhibition of kynurenine production in C57BL/6 mouse serum at 200 mg per mouse administered via oral dosing and measured after 2 hrs by LC-MS analysis; assay type: functional, organism-based
[15] = Drug concentration in C57BL/6 mouse serum at 200 mg per mouse administered via ip after 2 hrs by LC-MS analysis; assay type: ADME, organism-based; details: read-out: Drug uptake
[16] = Drug concentration in C57BL/6 mouse serum at 200 mg per mouse administered via oral dosing after 2 hrs by LC-MS analysis; assay type: ADME; details: read-out: Drug uptake
[17] = Drug metabolism in C57BL/6 mouse serum at 200 mg per mouse administered via IP measured after 2 hrs by LC-MS analysis; assay type: ADME
[18] = Drug metabolism in C57BL/6 mouse serum at 200 mg per mouse administered via oral dosing measured after 2 hrs by LC-MS analysis; assay type: ADME
[19] = molecular target: Signal transducer and activator of transcription 3 (Homo sapiens) (UniProt P40763); assay: Inhibition of STAT3 phosphorylation in IFN-gamma activated human A549 cells at 5 to 40 microg/ml by Western blotting analysis; assay type: cell-based; details: dose 5-40 µg/ml
Signal transducer and activator of transcription 3 (Homo sapiens), sequence (P40763 whole entry): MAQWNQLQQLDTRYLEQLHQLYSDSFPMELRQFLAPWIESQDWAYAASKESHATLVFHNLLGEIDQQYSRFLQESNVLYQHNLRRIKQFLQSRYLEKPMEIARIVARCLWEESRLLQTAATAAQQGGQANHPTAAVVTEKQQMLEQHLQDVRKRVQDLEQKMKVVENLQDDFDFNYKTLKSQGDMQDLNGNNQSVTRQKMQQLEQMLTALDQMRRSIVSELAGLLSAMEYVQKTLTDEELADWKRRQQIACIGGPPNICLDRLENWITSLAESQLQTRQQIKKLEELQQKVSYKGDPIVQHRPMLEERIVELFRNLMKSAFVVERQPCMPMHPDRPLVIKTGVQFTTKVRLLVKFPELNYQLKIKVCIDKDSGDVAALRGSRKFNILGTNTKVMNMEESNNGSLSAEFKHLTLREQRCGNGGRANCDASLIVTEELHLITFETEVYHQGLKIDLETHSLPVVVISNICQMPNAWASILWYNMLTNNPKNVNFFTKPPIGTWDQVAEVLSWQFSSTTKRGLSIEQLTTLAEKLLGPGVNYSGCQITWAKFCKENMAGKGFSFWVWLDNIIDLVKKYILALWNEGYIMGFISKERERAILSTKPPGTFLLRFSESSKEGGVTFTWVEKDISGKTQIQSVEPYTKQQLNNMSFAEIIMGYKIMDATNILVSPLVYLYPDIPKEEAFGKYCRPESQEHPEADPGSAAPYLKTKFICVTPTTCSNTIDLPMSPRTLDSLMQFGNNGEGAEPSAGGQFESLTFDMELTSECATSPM

A549 = assay: Reduction in IFN-gamma activated IDO1 expression level in human A549 cells at 1.25 to 40 microg/ml by Western blotting analysis; assay type: functional, cell-based; details: dose 1.25-40 µg/ml

Structure (SMILES)	IC50 [1] [µM]	inhibition [2] [%]	IC50 [3] [µM]	inhibition [9]	also measured
O=C(N[C@@H](CO)C(=O)Nc1ccccc1O)OCc1ccccc1	> 100	2.9	> 100	–	–
O=C(N[C@@H](CO)C(=O)O)OCc1ccccc1	> 100	-5.5	> 100	–	–
NS(=O)(=O)NCCNc1nonc1/C(=N/O)Nc1ccc(F)c(Br)c1	–	–	–	–	inhibition (Mus musculus [4]): Active
O=C(N[C@@H](CO)C(=O)NCCc1ccccc1)OCc1ccccc1	> 100	-5.1	> 100	–	–
O=[N+]([O-])c1ccc(CONS(=O)(=O)Cc2ccccc2)cc1	> 100	0.19	> 100	–	–
C[C@H](NC(=O)OCc1ccccc1)C(=O)NOCc1ccccc1	5.2	-9.4	> 100	–	inhibition (Mus musculus [5]): inactive; Stability [6]: Unstable; Drug metabolism [7]: Metabolite_Detected
O=C(N[C@@H](CO)C(=O)NOCc1ccc([N+](=O)[O-])cc1)OCc1ccccc1	5.5	-9.2	> 100	Active	Drug metabolism [8]: Metabolite_Detected
N[C@@H](CO)C(=O)NOCc1ccccc1	5.5	0	> 100	–	–
NS(=O)(=O)NCCNc1nonc1C(=NO)Nc1ccc(F)c(Br)c1 [EPACADOSTAT]	–	–	–	–	concentration at 2 h [10]: 1400 nM
O=C(NOCc1ccc([N+](=O)[O-])cc1)C12CC3CC(CC(O)(C3)C1)C2	> 100	-3.3	> 100	–	–
NOCc1ccccc1	10	100	> 100	Active	–
O=C(N[C@H](CO)C(=O)NOCc1ccccc1)OCc1ccccc1	5.1	5.6	> 100	–	Drug metabolism [11]: Metabolite_Detected
CC12CC3CC(C)(C1)CC(C(=O)NOCc1ccccc1)(C3)C2	> 100	7.9	> 100	–	–
O=C(N[C@@H](Cc1c[nH]c2ccccc12)C(=O)NOCc1ccccc1)OCc1ccccc1	12	4.9	> 100	–	–
Cl.NOCc1ccc([N+](=O)[O-])cc1	8	100	> 100	Active	Stability [12]: Unstable
O=C(NOCc1ccc([N+](=O)[O-])cc1)[C@H](O)c1ccccc1	24	9	> 100	inactive	–
O=C(NOCc1ccc([N+](=O)[O-])cc1)C12CC3CC(CC(C3)C1)C2	17	12	> 100	inactive	inhibition (Mus musculus [13]): inactive; inhibition (Mus musculus [14]): inactive; concentration at 2 h [15]: 18 nM; concentration at 2 h [16]: 3 nM; Drug metabolism [17]: Metabolite_Detected; Drug metabolism [18]: Metabolite_Detected; Stability [12]: Stable
O=C(N[C@@H](CO)C(=O)NOCc1ccccc1)OCc1ccccc1	4.6	10	> 100	Active	inhibition [19]: inactive; Activity (A549): inactive
CONC(=O)[C@H](CO)NC(=O)OCc1ccccc1	> 100	-8.3	> 100	–	–
